For assay [1], the system named is Symmetric Di-methyl Arginine (SDMA) signal (PRMT5 inhibition) in HCT116 MTAP-deleted cells. The experiment in a line: Symmetric di-methyl arginine image-based high content screen assay (SDMA assay), HCT116 MTAP-deleted. It counts as cell-based. Particulars: for EC50: Homo sapiens, HCT-116, HCT116 MTAP-deleted, class symbols. As to the method:
Symmetric di-methyl arginine image-based high content screen assay (SDMA assay) was performed in HCT116 WT and HCT116 MTAP-deleted cell lines to measure Symmetric Di-methyl Arginine (SDMA) signal reduction after selective PRMT5 inhibition in the MTAP-deleted cells. Control compounds were analyzed in parallel each time for quality control.
Briefly, the same compound plates were generated as mentioned in the previous section of Cell viability assay on Day −1. On Day 0, 800 HCT WT or HCT116 MTAP-deleted cell were seeded in compound-containing 384 well plates (50 μl per well) in RPMI 1640 media supplemented with 10% heat inactivated fetal bovine serum, Glutamax and penicillin streptomycin using EL460 liquid dispenser 5 μl cassette (BioTek, part no. 7170011). After equilibrating the plate at room temperature, the cells were incubated for 3 days inside the sealed incubator set at 37° C. with 90% humidity and 5% C02.
On Day 3, the cells were fixed by adding 45 μl of 8% neutralized formalin solution to each well using EL460 liquid dispenser 5 μl cassette and the cells were incubated for 30 minutes at room temperature. The formalin solution was washed off with […] phosphate buffered saline (dPBS), the 0.1% Triton X-100 solution in dPBS was used to permeabilize the cells for 15 minutes at room temperature. The triton solution was aspirated, 50 μl of Odyssey Blocking buffer +0.05% Tween20 was added and the plate was incubated at room temperature for 30 minutes.
The blocking solution was removed, a 20 μl of SDMA antibody (Cell Signaling Technology, Cat no. 13222) diluted 1:500 in Odyssey Blocking buffer +0.05% Tween20 was added and the plate was incubated at 4° C. overnight. Next day, the primary SDME antibody solution was washed from each well three times with 0.05% Tween20 in dPBS (PBST).
A 30 μl of the secondary antibody, a Goat anti-Rabbit Alexa Fluor Plus 488 (Invitrogen, Cat no. PIA32731) was diluted 1:500 in Odyssey Blocking buffer +0.05% Tween20 and the plate was incubated for 1.5 hours in dark at room temperature. The secondary antibody solution was removed, 30 μl of 5 mg/ml DAPI solution diluted 1:2000 in dPBS was added and the plate was incubated for 30 minutes in dark at room temperature. The DAPI solution was aspirated and the wells were washed six times with dPBS.
The SDMA signal and DAPI signal per cell were counted using a Cellomics CX7 LZR instrument reading under 488 and 405 nm laser, respectively. The SDMA signal was quantified by mean average intensity per cell from Alexa Fluor Plus 488 after the cell was defined with DAPI. The EC50 values for each compound after 3 days of treatment were calculated using 4 parameter non-linear logistical curve fit.
For the SDMA assay i.e. EC50 shown in Table 3A: A: EC50≤1 nM, B: 1 nM<EC50≤5 nM, C: EC50>5 nM.

The test system of assay [2] is HCT116 MTAP-deleted cell lines. The assay is described as follows: Cell viability assay (CellTiter-Glo, 7 days), HCT116 MTAP-deleted. Particulars: Homo sapiens, HCT-116, HCT116 MTAP-deleted, class symbols, read-out: CC50. In kind it is cell-based. Summed up: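 CC50 values come from 7-day CellTiter-Glo viability measurements on cells exposed to a dose range of PRMT5 inhibitors dispensed from DMSO stocks.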
(Cellular ATP, detected with luciferase, serves as a proxy for viable cell number.)

Where [3] appears, read: HCT116 WT versus HCT116 MTAP-deleted.
Where [4] appears, read: HCT116 WT vs HCT116 MTAP-deleted.

Molecules are shown by their SMILES. Read-outs that look alike come from different tables or passages of the source. Bounds are passed on as bounds.

As usually defined, the EC50 is the concentration giving half of the maximal effect. The term CC50 denotes the concentration at which the toxic effect on the cells reaches its halfway point.

In assay [1] (setting [3]), `Nc1nc2cc(F)c(C(=O)N3CCO[C@@H]4Cc5cc(Br)ccc5[C@@H]43)cc2n2cncc12` (racemic) [Ff-28, Racemic(4-amino-7-fluoroimidazo[1,5-a]quinoxalin-8-yl)((4aS,9aR)-7-bromo-2,3,9,9a-tetrahydroindeno[2,1-b][1,4]oxazin-4(4aH)-yl)methanone] showed an EC50 selectivity of 256. The compound further displayed an EC50 in assay [1] of 1 to 5 nM. In assay [2] (cell viability), the CC50 was under 100 nM.
For `COc1ccc2c(c1)CO[C@H]1CCCN(C(=O)c3cc4c(cc3F)nc(N)c3cncn34)[C@@H]21` (racemic) [Ff-44, Rac-(4-amino-7-fluoroimidazo[1,5-a]quinoxalin-8-yl)((cis)-8-methoxy-2,3,4,4a,6,10b-hexahydro-1H-isochromeno[4,3-b]pyridin-1-yl)methanone], in that order: 73, 1 to 5 nM and under 100 nM.
The matching figures for `Nc1nc2cc(F)c(C(=O)N3CCCC4OCc5nc(C(F)(F)F)ccc5[C@@H]43)cc2n2cncc12` (mixture of isomers) [Ff-319, Rac-(4-amino-7-fluoroimidazo[1,5-a]quinoxalin-8-yl)((4aS,10bS)-8-(trifluoromethyl)-2,3,4,4a,6,10b-hexahydro-1H-pyrano[3,2-b:5,4-b′]dipyridin-1-yl)methanone]: 42, 1 to 5 nM and under 100 nM.
For `C[C@@H]1CC2Cc3cc(C(F)(F)F)ccc3[C@@H]2N(C(=O)c2cc3c(cc2F)nc(N)c2cncn23)C1` (mixture of isomers) [Ff-320, Rac-(4-amino-7-fluoroimidazo[1,5-a]quinoxalin-8-yl)((3R,4aR,9bR)-3-methyl-7-(trifluoromethyl)-2,3,4,4a,5,9b-hexahydro-1H-indeno[1,2-b]pyridin-1-yl)methanone], in that order: 26, 1 to 5 nM and under 100 nM.
Take `C[C@@H]1C[C@@H]2Cc3nc(C(F)(F)F)ccc3[C@@H]2N(C(=O)c2cc3c(cc2F)nc(N)c2cncn23)C1` (racemic) [Ff-321, Rac-(4-amino-7-fluoroimidazo[1,5-a]quinoxalin-8-yl)((4bR,7R,8aR)-7-methyl-2-(trifluoromethyl)-4b,6,7,8,8a,9-hexahydro-5H-cyclopenta[1,2-b:3,4-b′]dipyridin-5-yl)methanone]: the EC50 selectivity in assay [1] (setting [3]) is listed as 67. The EC50 in assay [1] lay within 1 to 5 nM. Besides, the CC50 in assay [2] (cell viability) was under 100 nM.
As for `Cc1ncc2c(N)nc3cnc(C(=O)N4C[C@H](F)C[C@@H]5Oc6cc(C(F)(F)F)ccc6[C@@H]54)cc3n12` (racemic) [Ff-682, Rac-(4-amino-1-methylimidazo[1,5-a]pyrido[3,4-e]pyrazin-8-yl)((3R,4aS,9bS)-3-fluoro-7-(trifluoromethyl)-3,4,4a,9b-tetrahydrobenzofuro[3,2-b]pyridin-1(2H)-yl)methanone], the EC50 selectivity in assay [1] (setting [4]) turned out to be 128. This compound had an EC50 in assay [1] of 1 to 5 nM. In assay [2] (cell viability assay), the CC50 is under 100 nM.
In the case of `Nc1nc2cc(F)c(C(=O)N3C[C@H](F)CC4Oc5cc(OC(F)(F)F)ccc5C43)cc2n2cncc12` (mixture of isomers) [Fg-57, rac-(4-amino-7-fluoroimidazo[1,5-a]quinoxalin-8-yl)((3R,4aS,9bS)-3-fluoro-7-(trifluoromethoxy)-3,4,4a,9b-tetrahydrobenzofuro[3,2-b]pyridin-1(2H)-yl)methanone], the EC50 selectivity in assay [1] (setting [4]) was determined as 137. Besides, the EC50 in assay [1] was at most 1 nM. For the same compound, in assay [2] (cell viability assay), the CC50 is under 100 nM.
The matching figures for `Nc1nc2ccc(C(=O)N3C[C@H](F)CC4Oc5cc(OC(F)(F)F)ccc5C43)cc2n2cncc12` (mixture of isomers) [Fg-58, rac-(4-aminoimidazo[1,5-a]quinoxalin-8-yl)((3R,4aS,9bS)-3-fluoro-7-(trifluoromethoxy)-3,4,4a,9b-tetrahydrobenzofuro[3,2-b]pyridin-1(2H)-yl)methanone]: 345, 1 to 5 nM and under 100 nM.
In the case of `C[C@@H]1CN(C(=O)c2cc3c(cc2F)nc(N)c2cncn23)[C@H]2c3ccc(Br)c(F)c3C[C@H]2O1` (single isomer, unassigned) [Ff-163], the EC50 selectivity in assay [1] (setting [3]) is recorded as 64. Further, the EC50 in assay [1] was in the range of 1 to 5 nM. The CC50 in assay [2] (cell viability) was under 100 nM.
In assay [1] (setting [4]), `Nc1nc2cc(F)c(C(=O)N3CCC[C@H]4OCc5cc(OC(F)F)ccc5[C@H]43)cc2n2cncc12` (single isomer, unassigned) [Ff-391] gave an EC50 selectivity of 26. The EC50 in assay [1] fell in the range of 1 to 5 nM. In addition, the CC50 in assay [2] (cell viability assay) was under 100 nM.
Compound `Nc1nc2cc(F)c(C(=O)N3CCC[C@@H]4OCc5cc(OC(F)F)ccc5[C@@H]43)cc2n2cncc12` (single isomer, unassigned) [Ff-392] registered an EC50 selectivity in assay [1] (setting [4]) of 68. This compound also came in with an EC50 in assay [1] of at most 1 nM. The 50% cytotoxic concentration (CC50) in assay [2] (cell viability assay) was under 100 nM.
The matching figures for `C[C@H]1C[C@@H]2Oc3cc(C(F)(F)F)ccc3[C@@H]2N(C(=O)c2cc3c(cn2)nc(N)c2cncn23)C1` (single isomer, unassigned) [Ff-399]: 47, at most 1 nM and under 100 nM.
The matching figures for `Nc1nc2cnc(C(=O)N3CCC[C@@H]4Oc5cc(C(F)(F)F)ccc5[C@@H]43)cc2n2c(F)ncc12` (single isomer, unassigned) [Ff-625]: 315, over 5 nM and 100 to 1000 nM.
The matching figures for `Nc1nc2cnc(C(=O)N3CCC[C@@H]4Oc5cc(C(F)(F)F)ccc5[C@@H]43)cc2n2cnc(F)c12` (single isomer, unassigned) [Ff-626]: 143, 1 to 5 nM and under 100 nM.
In assay [1] (setting [4]), `Nc1nc2ccc(C(=O)N3C[C@H](F)C[C@@H]4Oc5cc(C(F)(F)F)ccc5[C@@H]43)cc2n2cncc12` (single isomer, unassigned) [Ff-681] showed an EC50 selectivity of 313. In addition, the EC50 in assay [1] was at most 1 nM. In assay [2] (cell viability assay), the CC50 is under 100 nM.
The matching figures for `Nc1nc2cnc(C(=O)N3CCC[C@@H]4Cc5cc(C(F)(F)F)ccc5[C@@H]43)cc2n2cncc12` (single isomer, unassigned) [Ff-687]: 325, at most 1 nM and under 100 nM.
The matching figures for `C[C@H]1C[C@@H]2Oc3cc(C(F)(F)F)ccc3[C@@H]2N(C(=O)c2ccc3nc(N)c4cncn4c3c2)C1` (single isomer, unassigned) [Ff-689]: 59, at most 1 nM and under 100 nM.
Turning to `CC(=O)N(C)N(Cc1ccc(C(F)(F)F)cn1)C(=O)c1ccc2nc(N)n3cncc3c2c1` [Fa-1, N′-acetyl-5-amino-N′-methyl-N-((5-(trifluoromethyl)pyridin-2-yl)methyl)imidazo[1,5-c]quinazoline-9-carbohydrazide], in assay [1] (setting [3]), the EC50 selectivity is 152. In assay [1], this compound gave an EC50 of over 5 nM. For the same compound, the CC50 in assay [2] (cell viability) was over 1000 nM.
For `Cc1ncc2c(N)nc3ccc(C(=O)N(Cc4ccc(C(F)(F)F)cn4)N(C)c4ncccn4)cc3n12` [Fa-2, 4-amino-N′,1-dimethyl-N′-pyrimidin-2-yl-N-[[5-(trifluoromethyl)-2-pyridyl]methyl]imidazo[1,5-a]quinoxaline-8-carbohydrazide], in that order: 17, at most 1 nM and under 100 nM.
In the case of `Nc1nc2ccc(C(=O)N(Cc3ccc(C(F)(F)F)cn3)N3CCOCC3)cc2c2cncn12` [Fa-3, 5-amino-N-morpholino-N-((5-(trifluoromethyl)pyridin-2-yl)methyl)imidazo[1,5-c]quinazoline-9-carboxamide], the EC50 selectivity in assay [1] (setting [3]) turned out to be 22. This compound came in with an EC50 in assay [1] of over 5 nM. Further, in assay [2] (cell viability), the CC50 was over 1000 nM.

Source of the values: patent US12448388B2, “PRMT5 inhibitors and uses thereof” (Gilead Sciences, Inc., priority 2023, dated 2025).
